In test [1] the target is T1, OPR3 (Solanum lycopersicum, UniProt Q9FEW9).
T1 construct: recombinant purified FMN ene-reductase; construct details in supplement
Kind of test: stopped-flow pre-steady-state kinetics, oxidative half-reaction. It counts as biochemical. The settings on record: oxidative half-reaction of reduced enzyme; read-out: Kd oxime. An excerpt:
(§1) stopped-flow pre-steady-state kinetics, oxidative half-reaction on OPR3

The target of test [2] is T2, OPR3 (Solanum lycopersicum, UniProt Q9FEW9, Y190F).
T2 construct: recombinant purified FMN ene-reductase; construct details in supplement
T2 sequence (Q9FEW9 whole entry Y190F): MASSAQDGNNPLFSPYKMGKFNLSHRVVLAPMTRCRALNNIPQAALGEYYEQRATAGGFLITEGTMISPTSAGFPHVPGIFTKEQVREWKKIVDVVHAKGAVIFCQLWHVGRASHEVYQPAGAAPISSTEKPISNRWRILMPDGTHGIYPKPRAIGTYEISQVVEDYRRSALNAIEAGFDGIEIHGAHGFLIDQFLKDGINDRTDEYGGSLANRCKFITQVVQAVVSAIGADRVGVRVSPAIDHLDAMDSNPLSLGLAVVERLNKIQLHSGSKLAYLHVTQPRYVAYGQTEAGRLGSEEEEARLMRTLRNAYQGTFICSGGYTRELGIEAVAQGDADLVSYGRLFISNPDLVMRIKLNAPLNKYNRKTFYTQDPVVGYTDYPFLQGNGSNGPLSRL
The description is as above. The format is biochemical. Particulars: oxidative half-reaction of reduced enzyme; read-out: Kd oxime.
Description: as §1

In test [3] the target is T3, OPR3 (Solanum lycopersicum, UniProt Q9FEW9, Y370F).
T3 construct: recombinant purified FMN ene-reductase; construct details in supplement
T3 sequence (Q9FEW9 whole entry Y370F): as the sequence (Q9FEW9 whole entry Y190F) above, with F190Y, Y370F counted along it
The test is described as above. Particulars: oxidative half-reaction of reduced enzyme; read-out: Kd oxime. The format is biochemical.
Description: as §1

The target in test [4] is T4, XenA (Pseudomonas putida, UniProt Q9R9V9).
T4 construct: recombinant purified FMN ene-reductase, His-tagged (position differs from earlier reports)
T4 sequence (Q9R9V9 entry or part of it): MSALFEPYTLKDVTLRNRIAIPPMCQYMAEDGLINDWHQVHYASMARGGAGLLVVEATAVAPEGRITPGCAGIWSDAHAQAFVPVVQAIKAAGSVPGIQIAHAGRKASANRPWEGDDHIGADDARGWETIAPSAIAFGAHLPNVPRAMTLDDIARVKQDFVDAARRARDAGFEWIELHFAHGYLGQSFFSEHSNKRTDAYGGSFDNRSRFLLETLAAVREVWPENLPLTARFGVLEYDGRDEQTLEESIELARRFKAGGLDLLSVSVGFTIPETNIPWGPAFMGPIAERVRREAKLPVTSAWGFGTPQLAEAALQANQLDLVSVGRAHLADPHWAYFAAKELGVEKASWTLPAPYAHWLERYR
Kind of test: X-ray crystal structure. It counts as binding. Particulars: active site, oxidized flavin.

Test [5] has as its target T4, XenA. Kind of test: stopped-flow pre-steady-state kinetics, oxidative half-reaction. Particulars: oxidative half-reaction of reduced enzyme; read-out: Kd oxime. The format is biochemical. An excerpt: stopped-flow pre-steady-state kinetics, oxidative half-reaction on XenA
Test [6] addresses T1, OPR3. As to the kind of experiment: X-ray crystal structure. The format is binding. Particulars: active site, oxidized flavin.
In test [7] the target is T4, XenA. Kind of test: stopped-flow pre-steady-state kinetics, reductive half-reaction. The format is biochemical. Particulars: read-out: Kd NADPH; reductive half-reaction of oxidized enzyme. An excerpt:
stopped-flow pre-steady-state kinetics, reductive half-reaction on XenA

T1 sequence (Q9FEW9 whole entry): as the sequence (Q9FEW9 whole entry Y190F) above, with F190Y counted along it

For orientation: Kd means a measure of binding affinity in units of concentration. As to `CCOC(=O)C(=NO)C(C)=O` [1a, oxime 1a], the Kd on OPR3 [1] is 79 ± 4 µM; at OPR3 [2], 69 ± 4 µM; on OPR3 [3], 37.4 ± 4.4 µM. In addition, the X-ray crystal structure entry on XenA [4] is listed as “(b) XenA/1a”.
`CCOC(=O)C(=NO)C(=O)CC` [1b, oxime 1b]: at XenA [5], the Kd came to 6430 ± 1570 µM. Also, the X-ray crystal structure result on OPR3 [6] is reported as “(c) OPR3/1b”.
Turning to `NC(=O)C1=CN([C@@H]2O[C@H](COP(=O)(O)OP(=O)(O)OC[C@H]3O[C@@H](n4cnc5c(N)ncnc54)[C@H](OP(=O)(O)O)[C@@H]3O)[C@@H](O)[C@H]2O)C=CC1` [NADPH], the Kd on XenA [7] amounted to 109 ± 5.1 µM.

Values taken from PMC9942197, “Mechanistic Insights into the Ene-Reductase-Catalyzed Promiscuous Reduction of Oximes to Amines” (ACS Catalysis, 2023).
